Source: the CheMixHub viscosity set
± gives the uncertainty stated by the source.

Assay: xn = mol fraction of the nth substance listed

CC(=O)O + O
Conditions	viscosity [mPa·s]
293.15 K, 101 kPa, x1 = 0.0322	1.205 ± 0.031
293.15 K, 101 kPa, x1 = 0.0731	1.433 ± 0.036
293.15 K, 101 kPa, x1 = 0.1134	1.649 ± 0.042
293.15 K, 101 kPa, x1 = 0.1667	1.892 ± 0.048
293.15 K, 101 kPa, x1 = 0.2308	2.14 ± 0.054
293.15 K, 101 kPa, x1 = 0.3102	2.385 ± 0.061
293.15 K, 101 kPa, x1 = 0.4112	2.607 ± 0.066
293.15 K, 101 kPa, x1 = 0.7286	2.39 ± 0.06
293.15 K, 101.33 kPa, x1 = 0.03226	1.237 ± 0.012
293.15 K, 101.33 kPa, x1 = 0.1139	1.696 ± 0.017
293.15 K, 101.33 kPa, x1 = 0.2308	2.188 ± 0.022
293.15 K, 101.33 kPa, x1 = 0.4118	2.686 ± 0.027
293.15 K, 101.33 kPa, x1 = 0.5011	2.784 ± 0.028
293.15 K, 101.33 kPa, x1 = 0.5454	2.781 ± 0.028
293.15 K, 101.33 kPa, x2 = 0.0132	1.455 ± 0.015
295.3 K, 101.33 kPa, x1 = 0.0321	1.135 ± 0.0091
298.15 K, 101 kPa, x1 = 0.0322	1.073 ± 0.027
298.15 K, 101 kPa, x1 = 0.0731	1.27 ± 0.032
298.15 K, 101 kPa, x1 = 0.1134	1.452 ± 0.037
298.15 K, 101 kPa, x1 = 0.1667	1.644 ± 0.042
298.15 K, 101 kPa, x1 = 0.2308	1.866 ± 0.048
298.15 K, 101 kPa, x1 = 0.3102	2.086 ± 0.053
298.15 K, 101 kPa, x1 = 0.4112	2.272 ± 0.058
298.15 K, 101 kPa, x1 = 0.5449	2.353 ± 0.06
298.15 K, 101 kPa, x1 = 0.7286	2.105 ± 0.054
298.15 K, 101.33 kPa, x1 = 0.016	0.988 ± 0.039
298.15 K, 101.33 kPa, x1 = 0.034	1.08 ± 0.041
298.15 K, 101.33 kPa, x1 = 0.0684	1.232 ± 0.012
298.15 K, 101.33 kPa, x1 = 0.07	1.254 ± 0.043
298.15 K, 101.33 kPa, x1 = 0.1242	1.437 ± 0.011
298.15 K, 101.33 kPa, x1 = 0.1648	1.633 ± 0.016
298.15 K, 101.33 kPa, x1 = 0.2268	1.824 ± 0.016
298.15 K, 101.33 kPa, x1 = 0.2289	1.867 ± 0.016
298.15 K, 101.33 kPa, x1 = 0.2844	1.986 ± 0.016
298.15 K, 101.33 kPa, x1 = 0.3218	2.091 ± 0.021
298.15 K, 101.33 kPa, x1 = 0.3273	2.103 ± 0.017
298.15 K, 101.33 kPa, x1 = 0.4187	2.248 ± 0.022
298.15 K, 101.33 kPa, x1 = 0.436	2.333 ± 0.018
298.15 K, 101.33 kPa, x1 = 0.4699	2.305 ± 0.023
298.15 K, 101.33 kPa, x1 = 0.5177	2.374 ± 0.019
298.15 K, 101.33 kPa, x1 = 0.5367	2.254 ± 0.023
298.15 K, 101.33 kPa, x1 = 0.737	2.06 ± 0.021
298.15 K, 101.33 kPa, x1 = 0.8576	1.689 ± 0.017
298.15 K, 101.33 kPa, x1 = 0.9548	1.223 ± 0.01
300.27 K, 101.33 kPa, x1 = 0.03428	1.014 ± 0.0081
303.15 K, 101 kPa, x1 = 0.0322	0.953 ± 0.024
303.15 K, 101 kPa, x1 = 0.0731	1.12 ± 0.029
303.15 K, 101 kPa, x1 = 0.1134	1.276 ± 0.033
303.15 K, 101 kPa, x1 = 0.1667	1.452 ± 0.037
303.15 K, 101 kPa, x1 = 0.2308	1.634 ± 0.042
303.15 K, 101 kPa, x1 = 0.3102	1.816 ± 0.046
303.15 K, 101 kPa, x1 = 0.4112	1.977 ± 0.05
303.15 K, 101 kPa, x1 = 0.7286	1.847 ± 0.047
303.55 K, 101.33 kPa, x1 = 0.0321	0.956 ± 0.0076
303.65 K, 101.33 kPa, x1 = 0.03428	0.939 ± 0.0075
308.15 K, 101 kPa, x1 = 0.0322	0.855 ± 0.022
308.15 K, 101 kPa, x1 = 0.0731	1.003 ± 0.025
308.15 K, 101 kPa, x1 = 0.1134	1.135 ± 0.029
308.15 K, 101 kPa, x1 = 0.1667	1.289 ± 0.033
308.15 K, 101 kPa, x1 = 0.2308	1.447 ± 0.037
308.15 K, 101 kPa, x1 = 0.3102	1.612 ± 0.041
308.15 K, 101 kPa, x1 = 0.4112	1.76 ± 0.045
308.15 K, 101 kPa, x1 = 0.5449	1.813 ± 0.046
308.15 K, 101 kPa, x1 = 0.7286	1.653 ± 0.042
313.15 K, 100 kPa, x1 = 0.1001	0.997 ± 0.056
313.15 K, 100 kPa, x1 = 0.2001	1.278 ± 0.07
313.15 K, 100 kPa, x1 = 0.2998	1.467 ± 0.08
313.15 K, 100 kPa, x1 = 0.3999	1.564 ± 0.084
313.15 K, 100 kPa, x1 = 0.4996	1.585 ± 0.084
313.15 K, 100 kPa, x1 = 0.5999	1.548 ± 0.081
313.15 K, 100 kPa, x1 = 0.7002	1.461 ± 0.076
313.15 K, 100 kPa, x1 = 0.7992	1.328 ± 0.068
313.15 K, 100 kPa, x1 = 0.9001	1.14 ± 0.058
313.15 K, 101 kPa, x1 = 0.0322	0.775 ± 0.02
313.15 K, 101 kPa, x1 = 0.0731	0.903 ± 0.023
313.15 K, 101 kPa, x1 = 0.1134	1.014 ± 0.026
313.15 K, 101 kPa, x1 = 0.1667	1.158 ± 0.029
313.15 K, 101 kPa, x1 = 0.2308	1.297 ± 0.033
313.15 K, 101 kPa, x1 = 0.3102	1.426 ± 0.036
313.15 K, 101 kPa, x1 = 0.4112	1.549 ± 0.039
313.15 K, 101 kPa, x1 = 0.5449	1.614 ± 0.041
313.15 K, 101 kPa, x1 = 0.7286	1.48 ± 0.038
318.15 K, 101 kPa, x1 = 0.0322	0.709 ± 0.018
318.15 K, 101 kPa, x1 = 0.0731	0.819 ± 0.021
318.15 K, 101 kPa, x1 = 0.1134	0.922 ± 0.023
318.15 K, 101 kPa, x1 = 0.1667	1.041 ± 0.026
318.15 K, 101 kPa, x1 = 0.2308	1.165 ± 0.03
318.15 K, 101 kPa, x1 = 0.3102	1.286 ± 0.033
318.15 K, 101 kPa, x1 = 0.4112	1.397 ± 0.035
318.15 K, 101 kPa, x1 = 0.5449	1.453 ± 0.037
318.15 K, 101 kPa, x1 = 0.7286	1.34 ± 0.034
323.15 K, 101 kPa, x1 = 0.0322	0.644 ± 0.016
323.15 K, 101 kPa, x1 = 0.0731	0.742 ± 0.019
323.15 K, 101 kPa, x1 = 0.1134	0.842 ± 0.021
323.15 K, 101 kPa, x1 = 0.1667	0.943 ± 0.024
323.15 K, 101 kPa, x1 = 0.2308	1.052 ± 0.027
323.15 K, 101 kPa, x1 = 0.3102	1.166 ± 0.029
323.15 K, 101 kPa, x1 = 0.4112	1.265 ± 0.032
323.15 K, 101 kPa, x1 = 0.5449	1.316 ± 0.033
323.15 K, 101 kPa, x1 = 0.7286	1.235 ± 0.031
